Experimental data: patent publication US7741346B2, “Angiogenesis inhibitor” (Santen Pharmaceutical Co., Ltd., priority 2001, dated 2010)

How the values were obtained:
[1] = system: normal human umbilical vein endotherial cells (HUVEC); experiment: VEGF-induced HUVEC proliferation (in vitro angiogenesis inhibition test); type: cell-based; settings: 10 μM test compound, 10 ng/ml VEGF, three days after adding VEGF, WST-8 absorbance at 450 nm; for inhibition at 10 µM: Homo sapiens, HUVEC, 72 h, read-out: Inhibitory rate (%) (cell growth inhibitory rate to the control); for Inhibitory rate (%) (cell growth inhibitory rate to the control): 10 µM
Protocol: (1) Angiogenesis Inhibition Tests Using Human Endothelial Cells
The effects of the present compounds on the in vitro angiogenesis were evaluated by using vascular endothelial growth factor (VEGF)-induced normal human umbilical vein endotherial cells (HUVEC) proliferation system (Cancer Res., 59, 99-106 (1999)), wherein inhibitory effects of drugs on cell growth reactions induced by treating HUVEC with VEGF as an in vitro angiogenesis evaluation model.
The present compound was dissolved in DMSO and then diluted with a medium to prepare 40 μM test compound solution.
2×10^3 cells/well of HUVEC was seeded onto a type I collagen coated 96-well plate. After one day, 25 μl of the 40 μM test compound solution and a 0.8% DMSO solution as a control were added to each well (final concentration; 10 μM of the test compound and 0.2% of DMSO). One hour after adding the test compound, 25 μl of 40 ng/ml VEGF solution was added to each well(final concentration; 10 ng/ml of VEGF). Three days after adding VEGF, a WST-8 assay reagent (manufactured by Dojin Chemical Co., Ltd.) was added to each well in an amount of 10 μl, and absorbance at 450 nm was measured.
Calculating cell growth inhibitory rates (%) to the control, angiogenesis inhibitory rates of almost all of the test compounds were 80% or higher.

SMILES | inhibition at 10 µM [1] | melting point | Inhibitory rate (%) (cell growth inhibitory rate to the control) [1]
CCCCCN(CCC12CC3CC(CC(C3)C1)C2)C(=O)NC(C)CCc1ccncc1 (stereo not drawn) [Compound No. 1-137, 1-[2-(1-Adamantyl)ethyl]-3-[1-methyl-3-(4-pyridyl)propyl]-1-pentylurea] | 83.3% | 128.5 to 129 °C | 
CC(CNC(=O)N(CCN(C)C(=O)OC(C)(C)C)CCC12CC3CC(CC(C3)C1)C2)Cc1ccncc1 (single isomer, unassigned; (+)) [Compound No. 1-139, (+)-1-[2-(1-Adamantyl)ethyl]-1-[2-[N-(t-butoxycarbonyl)-N-methylamino]ethyl]-3-[2-methyl-3-(4-pyridyl)propyl]urea] |  | 122.7 to 123.7 °C | 83.1%
CCCCCN(CCC12CC3CC(CC(C3)C1)C2)C(=O)NCC(C)Cc1ccncc1 (single isomer, unassigned; (-)) [Compound No. 1-120, (−)-1-[2-(1-Adamantyl)ethyl]-3-[2-methyl-3-(4-pyridyl)propyl]-1-pentylurea] | 83.1% |  | 
CC=CCN(CCC12CC3CC(CC(C3)C1)C2)C(=O)NCCCc1ccncc1 [Compound No. 1-25, 1-[2-(1-Adamantyl)ethyl]-1-(2-butenyl)-3-[3-(4-pyridyl)propyl]urea] | 83.2% | 89.5 to 93.5 °C | 
CCCCCN(CCC12CC3CC(CC(C3)C1)C2)C(=O)NC/C=C\c1ccncc1 [Compound No. 1-111, (Z)-1-[2-(1-Adamantyl)ethyl]-1-pentyl-3-[3-(4-pyridyl)-2-propenyl]urea] | 83.1% |  | 
CCCCCN(CCC12CC3CC(CC(C3)C1)C2)C(=O)NCCCc1ccncc1 [Compound No. 1-1, 1-[2-(1-Adamantyl)ethyl]-1-pentyl-3-[3-(4-pyridyl)propyl]urea] | 83.4% |  | 
CCCN(CCCC12CC3CC(CC(C3)C1)C2)C(=O)NCCCc1ccncc1 [Compound No. 1-35, 1-[3-(1-Adamantyl)propyl]-1-propyl-3-[3-(4-pyridyl)propyl]urea] | 83.7% |  | 
O=C(NCCCc1ccncc1)N(CCC(F)(F)F)CCC12CC3CC(CC(C3)C1)C2 [Compound No. 1-24, 1-[2-(1-Adamantyl)ethyl]-3-[3-(4-pyridyl)propyl]-1-(3,3,3-trifluoropropyl)urea] | 82.1% | 107.5 to 109 °C | 
CCCCCN(CCC12CC3CC(CC(C3)C1)C2)C(=O)CCSCc1ccncc1 [Compound No. 2-15, 3-(4-Pyridylmethylthio)propionic acid N-[2-(1-adamantyl)ethyl]-N-pentylamide] | 83.3% |  | 
CN(CCN(CCC12CC3CC(CC(C3)C1)C2)C(=O)NCCCc1ccncc1)C(=O)OC(C)(C)C [Compound No. 1-26, 1-[2-(1-Adamantyl)ethyl]-[2-[N-(t-butoxycarbonyl)-N-methylamino]ethyl]-3-[3-(4-pyridyl)propyl]urea] | 79.2% |  | 
CCCCCN(CCC12CC3CC(CC(C3)C1)C2)C(=O)NCC(C)Cc1ccncc1 (stereo not drawn) [Compound No. 1-100, 1-[2-(1-Adamantyl)ethyl]-3-[2-methyl-3-(4-pyridyl)propyl]-1-pentylurea] |  |  | 83.0%
CCCCCN(CCC12CC3CC(CC(C3)C1)C2)C(=O)NC/C=C/c1ccncc1 [Compound No. 1-112, (E)-1-[2-(1-Adamantyl)ethyl]-1-pentyl-3-[3-(4-pyridyl)-2-propenyl]urea] | 83.2% | 90 to 118 °C | 
CCCCCN(CCC12CC3CC(CC(C3)C1)C2)C(=O)CCCCCc1ccncc1 [Compound No. 2-20, 6-(4-Pyridyl)caproic acid N-[2-(1-adamantyl)ethyl]-N-pentylamide] | 82.5% |  | 
